Data from patent publication US9561245B2, “Combination treatments for melanoma” (priority 2012, dated 2017).
Where two headings read alike, the source gives them in different places.

Experiments:
[1] = test system: M481, M487 and M610 melanoma cells carrying BRAF V600E mutations; format: in vivo, NSG mice
Procedure: M481, M487 and M610 melanoma cells carrying BRAF V600E mutations were implanted in s.c. tissue on right flanks of NSG mice. When tumors became palpable, mice were randomized to four different treatments. […] Control mice received vehicle only (200 μl 0.5% promethylcellulose, 0.2% Tween80 and 5% DMSO per day). Tumors were measured every 2-3 days with calipers.
In these experiments metastatic melanoma cells were injected subcutaneously in the right flanks of immunocompromised NSG mice. When tumors became palpable, mice were randomized to four different treatments. […] Control mice received vehicle only (200 μl 0.5% promethylcellulose, 0.2% Tween80 and 5% DMSO per day). Tumors were measured every 2-3 days with calipers.

JNK = conditions: rat adipocytes and L6 myotubes; cited from earlier work
MSK1 = MSK1 (Homo sapiens, UniProt O75582); conditions: cited from earlier work
ERK2 = conditions: rat adipocytes and L6 myotubes; cited from earlier work
PKGα = conditions: cited from earlier work
MAPK = conditions: rat adipocytes and L6 myotubes; cited from earlier work
glycogen synthase = conditions: rat adipocytes and L6 myotubes; cited from earlier work
[2] = test system: M481 metastatic melanoma cells; assay: M481 melanoma xenograft tumor growth in NSG mice (i.p. agents, PLX 4720 chow); format: in vivo
Procedure: M481 metastatic melanoma cells were implanted in s.c. tissue on right flanks of NSG mice. […] For PLX4720 treatment mice were switched to either a chow diet containing 417 mg/kg PLX4720 or the control chow containing no compound. Tumors were measured every 2-3 day with calipers. Mean±SD is reported (* P<0.05, *** P<0.0005, ns: not significant; two-tailed Student's t test). FIG. 1B, Representative bioluminescence images of melanomas at day 14.
M481 metastatic melanoma cells were implanted in s.c. tissue on right flanks of NSG mice. When tumors became palpable mice were i.p. injected with RO 31-8220 (3 mg/kg) or DMSO. […] Tumors were measured every 2-3 day with calipers. […]
M481 metastatic melanoma cells were implanted in s.c. tissue on right flanks of NSG mice. […] Tumors were measured every 2-3 day with calipers. […]
Transplanting melanoma cells. After sorting, cells were counted and resuspended in staining medium (L15 medium containing 1 mg/ml BSA, 1% penicillin/streptomycin and 10 mM HEPES [pH7.4]) with 25% high protein Matrigel (product 354248; BD Biosciences). […]
Bioluminescence imaging (BLI). Mice were injected with 100 luciferase-GFP+ cells on the right flank and monitored until tumor diameters approached 20 mm, at which point they were imaged along with an uninjected control mouse on an IVIS Imaging System 200 Series (Calliper Life Sciences) using Living Image software. […]

Sequence of MSK1 (O75582 whole entry, species assumed): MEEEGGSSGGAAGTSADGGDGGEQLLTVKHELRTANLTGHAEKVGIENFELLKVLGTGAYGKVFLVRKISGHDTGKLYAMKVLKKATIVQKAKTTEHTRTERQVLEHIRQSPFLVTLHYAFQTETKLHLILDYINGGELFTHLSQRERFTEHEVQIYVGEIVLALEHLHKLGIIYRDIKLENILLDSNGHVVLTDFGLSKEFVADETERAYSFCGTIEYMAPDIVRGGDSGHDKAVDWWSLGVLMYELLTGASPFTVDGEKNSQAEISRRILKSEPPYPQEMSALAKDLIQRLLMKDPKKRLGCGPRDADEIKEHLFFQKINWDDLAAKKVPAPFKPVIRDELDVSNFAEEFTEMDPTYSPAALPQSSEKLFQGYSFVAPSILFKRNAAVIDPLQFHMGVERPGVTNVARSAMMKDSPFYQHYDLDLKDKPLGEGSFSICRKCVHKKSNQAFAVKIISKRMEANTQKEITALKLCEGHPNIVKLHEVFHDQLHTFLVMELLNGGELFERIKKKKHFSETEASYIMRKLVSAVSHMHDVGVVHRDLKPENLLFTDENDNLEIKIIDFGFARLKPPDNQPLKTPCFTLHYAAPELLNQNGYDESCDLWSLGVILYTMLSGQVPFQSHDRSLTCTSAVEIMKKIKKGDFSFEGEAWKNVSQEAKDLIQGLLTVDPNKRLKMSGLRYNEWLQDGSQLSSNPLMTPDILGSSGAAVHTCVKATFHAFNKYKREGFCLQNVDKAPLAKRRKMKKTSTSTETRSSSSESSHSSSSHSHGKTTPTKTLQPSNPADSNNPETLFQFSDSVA

SMILES: CCCS(=O)(=O)Nc1ccc(F)c(C(=O)c2c[nH]c3ncc(Cl)cc23)c1F [PLX 4720]
- growth of human melanoma xenografts ([1]; PLX4720 20 mg/kg/day by oral gavage alone): slowed the growth

SMILES: Cn1cc(C2=C(c3cn(CCCSC(=N)N)c4ccccc34)C(=O)NC2=O)c2ccccc21 [RO 31-8220]
- effect on JNK (JNK): Activates
- IC50 (MSK1): 8 nM
- effect on ERK2 (ERK2): inhibits
- IC50 (PKGα): 33 nM
- effect on MAPK (MAPK): inhibits
- effect on glycogen synthase (glycogen synthase): Activates
- in vivo tumor growth ([2]; RO 31-8220 3 mg/kg i.p. alone): inhibited the growth of a melanoma as well as the BRAF inhibitor (PLX 4720)

SMILES: C[C@H]1O[C@@H](O[C@H]2[C@@H](O)C[C@H](O[C@H]3[C@@H](O)C[C@H](O[C@H]4CC[C@@]5(C)[C@H](CC[C@@H]6[C@@H]5CC[C@]5(C)[C@@H](C7=CC(=O)OC7)CC[C@]65O)C4)O[C@@H]3C)O[C@@H]2C)C[C@H](O)[C@@H]1O [digitoxin]
- growth of human melanoma xenografts ([1]; digitoxin 0.5 mg/kg/day by oral gavage alone): slowed the growth
- in vivo tumor growth ([2]; digitoxin 0.5 mg/kg i.p. alone, s.c. xenograft, calipers every 2-3 day): inhibited the growth of a melanoma better than BRAF inhibitor (PLX 4720)
